This note sets out measurements from patent publication US20120149080A1, “YEAST PRODUCTION CULTURE FOR THE PRODUCTION OF BUTANOL” (Butamax(TM) Advanced Biofuels LLC, priority 2010, published 2012).

Common to all, as to assay: Glucose consumption rate in high cell density culture in YPD
Common to all, as to assay type: cell-based
Common to all, as to conditions: about 3.9 gdcw/L

Assay [1] relates to Saccharomyces cerevisiae PNY0602. From the text:
(§1) S. cerevisiae strains used were PNY0569 CEN.PK122 (MATa MAL2-8c SUC2/MATalpha MAL2-8c SUC2) and PNY0571 (CEN.PK 113-7D MATa MAL2-8c SUC2), obtained from Centraalbureau voor Schimmelcultures, Fungal and Yeast Collection (Netherlands) as well as PNY0602 and PNY0614. PNY0602 and PNY0614 were isolated from a mutagenized culture of PNY0571. PNY0571 (CEN.PK 113-7D) was subjected to 10 rounds of chemical mutagenesis with N-methyl-N′-nitro-N-nitrosoguanidine (NTG) and ethylmethane sulfonate (EMS) using standard methods (Barbour, L., M. Hanna and W. Xiao. 2006. Mutagenesis, p. 121-127. In W. Xiao (ed.), Yeast Protocols, Second Edition. Humana Press, NJ). Cells were grown overnight in 10 ml of YPD at 30° C. with shaking. The overnight culture was centrifuged, and the pellet was resuspended in 50 mM potassium phosphate buffer, pH 7.0. The cells were again centrifuged and resuspended in 10 ml of the same buffer. A portion of the resuspended cells (2.5 ml) was transferred to a plastic 15 ml screw cap centrifuge tube, and the cells were treated with NTG (10 μg/ml final concentration) or EMS (3% w/v) for 40 minutes at 30° C. without shaking. The mutagen was inactivated by addition of an equal volume of filter sterilized 10% (w/v) sodium thiosulfate. The treated cells were centrifuged and resuspended in water two times. The treatment protocol involved repeated cycles of treating yeast cells with one of the mutagens (e.g., NTG), allowing the surviving cells to grow out overnight in YPD with 1% isobutanol, and then treating the overnight culture with the other mutagen (e.g., EMS). After the fifth cycle (i.e., a total of ten treatments with mutagen), cells were screened for isobutanol tolerance. PNY0602 was isolated after prolonged (24 h) exposure to 3.0% isobutanol. PNY0614 was isolated after 5 cycles of repeated freezing and thawing of the mutagenized culture by resuspending mutagenized cells in distilled water and transferring the cells to dry-ice ethanol bath and a 37° C. water bath for 20 minutes each.
(§2) Glucose consumption rates in the presence of isobutanol in YPD were also determined when the cell concentration was about 8 O.D. (about 3.9 gdcw/L). Saccharomyces cerevisiae strains PNY0571, PNY0602 and PNY0614 were plated from a freezer vial onto YPD agar (Teknova, Hollister, Calif.; Cat. #Y1000) and incubated overnight at 30° C. Cells from the YPD plate were inoculated into a 25 ml pre-culture of YPD broth (Teknova, Hollister, Calif.; Cat. #Y5000) with an initial OD600 of 0.06 to 0.08, and this culture was grown for 7 hours in an air shaker at 30° C. An aliquot of the pre-culture was inoculated into 200 ml of YPD broth with an initial OD600 of 0.06 to 0.08, and this culture was incubated with aeration at 30° C. for approximately 17 hours. The optical density of the culture was determined, the culture was centrifuged and the cells were resuspended in fresh YPD broth to yield an OD600 of 8. At this point, an aliquot of 10 ml of the culture was used for a dry cell weight determination, which gave dry cell weight in the range of 3.89 gdcw/L.
(§3) 20 ml cultures were transferred to flasks that contained 0.0%, 0.5%, 0.75%, 1.0%, 1.25%, 1.5%, 1.75%, 2.0% and 2.5% isobutanol. Time of addition of cells was referred to as 0 hours. At various times samples (500 to 700 ul) were transferred to a tube containing an equal volume of 10% TCA. Samples were centrifuged and glucose determined in the YSI glucose analyzer (YSI 2700 Select).

In assay [2] the test system is Saccharomyces cerevisiae PNY0614.
Source text: as §1, §2, §3

Assay [3] relates to Saccharomyces cerevisiae PNY0571.
Source text: as §1, §2, §3

Consider `CC(C)CO` [Isobutanol, isobutanol], for which the “Glucose consumed per gdcw per hour” value in assay [1] (PNY0602, 0.5% isobutanol) is given as 3.0 per gdcw per hour; in assay [1] (PNY0602, 0.75% isobutanol) it was 2.9 per gdcw per hour; in assay [1] (PNY0602, 1% isobutanol) it was 2.7 per gdcw per hour; in assay [1] (PNY0602, 1.5% isobutanol) it was 1.5 per gdcw per hour; in assay [1] (PNY0602, 1.75% isobutanol) it was 1.1 per gdcw per hour; in assay [1] (PNY0602, 2% isobutanol), 0.9 per gdcw per hour. The “Glucose consumed per gdcw per hour” value in assay [1] (PNY0602, 2.5% isobutanol) is 0.5 per gdcw per hour; in assay [2] (PNY0614, 0.5% isobutanol), 2.9 per gdcw per hour; in assay [2] (PNY0614, 0.75% isobutanol), 2.8 per gdcw per hour; in assay [2] (PNY0614, 1% isobutanol), 2.6 per gdcw per hour; in assay [2] (PNY0614, 1.5% isobutanol), 1.4 per gdcw per hour; in assay [2] (PNY0614, 1.75% isobutanol) it was 1.0 per gdcw per hour. Besides, the “Glucose consumed per gdcw per hour” value in assay [2] (PNY0614, 2% isobutanol) is 0.8 per gdcw per hour; in assay [2] (PNY0614, 2.5% isobutanol), 0.4 per gdcw per hour; in assay [3] (PNY0571, 0.5% isobutanol) it was 2.1 per gdcw per hour; in assay [3] (PNY0571, 0.75% isobutanol), 2.0 per gdcw per hour; in assay [3] (PNY0571, 1% isobutanol) it was 1.9 per gdcw per hour; in assay [3] (PNY0571, 1.5% isobutanol), 1.0 per gdcw per hour. The “Glucose consumed per gdcw per hour” value in assay [3] (PNY0571, 1.75% isobutanol) was found to be 0.8 per gdcw per hour; in assay [3] (PNY0571, 2% isobutanol), 0.6 per gdcw per hour; in assay [3] (PNY0571, 2.5% isobutanol), 0.3 per gdcw per hour.
